From patent publication US20130281504A1, “Reduction of Microglia-Mediated Neurotoxicity by KCa3.1 Inhibition” (THE REGENTS OF THE UNIVERSITY OF CALIFORNIA, priority 2010, published 2013)

Legend:
Type in all cases: cell-based, mouse
[1] = system: microglia; test: Assay for nitric oxide (nitrite) in microglia conditioned medium; conditions: for AβO-induced increase of microglia NO production: 5 μM 1400 W, 100 μM L-NIL, FIG. 8A
[2] = system: p38MAPK; test: p38MAPK phosphorylation in microglia (Western blot); conditions: AβO, 30 minutes
Description: Primary microglia cultures derived from newborn C57BL/6J mice were prepared from mixed glia cultures with the “shaking off” method described by Maezawa, I., et al.; (2006) FASEB J 20, 797-799. […] To obtain conditioned medium (CM) for treating neurons, microglia were first cultured in 24-well culture plates at a density of 1.3×10^5 cells/cm^2 for 24 hrs in DMEM with 10% fetal bovine serum (DMEM10). Cultures were washed extensively and changed to the Neurobasal medium with B27 supplement (NB/B27, Invitrogen) without serum and cultured for another 24 hrs. The NB/B27-based microglia CMs were collected, briefly centrifuged, and used immediately or frozen for future uses.
(§1) To obtain lysates, cells or tissues were washed with ice-cold PBS and incubated with a buffer containing 50 mmol/L Tris-HCl (pH 7.4), 150 mmol/L NaCl, 2% SDS, proteinase inhibitor cocktail (Sigma), and phosphatase inhibitor cocktail (Sigma). Lysates were briefly sonncated and cleared by centrifugation at 50,000 rpm for 10 min. Equivalent amounts of protein were analyzed by Tris/HCL gel electrophoresis. Proteins were transferred to polyvinylidene difluoride membranes and probed with antibodies. Visualization was performed using enhanced chemiluminescence (ECL, Amersham Pharmacia, Piscataway, N.J.).
The following primary antibodies (dilutions) were used: anti-p38MAPK (1:1000, Cell Signaling Technology, Boston, Mass.), anti-phospho-p38MAPK (1:1000, Cell Signaling Technology), anti-Synaptophysin (1:1000, Abcam), anti-PSD95 (1:1000, cell signaling), anti-GRIP 1 (1:1000, UpState), anti-MAP2 (1:1000, Chemicon), anti-acetylated α-tubulin (1:2000, Zymed), and anti-β-actin (1:3000, Sigma). Secondary antibodies were HRP-conjugated anti-rabbit, anti-goat, or anti-mouse antibody (1:3000 Amersham).

[3] = system: NFκB; test: NFκB assay in microglia; conditions: AβO, 2 hrs
Description: The detection of cells with active NFκB was performed according to the method described by Franciosi, S., et al.; (2006) J Neurosci 26, 11652-11664. Briefly, microglia were plated as described above and treated with activators for 2 hrs. Cells were fixed and stained with anti-NF-κBp65 antibody (1:250, Chemicon) and with the nuclear dye DAPI.

[4] = system: microglia; test: AβO-induced microglia proliferation/activation (cell number); conditions: for microglia cell counts, % of solvent-treated controls: mean±S.E
[5] = system: hippocampal neurons; test: Viability of cultured hippocampal neurons, direct AβO; conditions: direct addition
[6] = system: hippocampal slices; test: AβO-treated organotypic hippocampal slice cultures; conditions: iNOS inhibitors applied 1 hr prior to AβO; for AβO-induced NO production by hippocampal slices: FIG. 8C; for AβO-induced neuronal damage (PI uptake) in hippocampal slices: FIG. 8D
Description: Hippocampal slice cultures (400 μm-thick) were prepared from 7-day-old C57BL/6J mice as previously described (25) and cultured for 10 days in vitro before use. Neuronal damage in the slices was monitored by PI uptake following Bernardino et al (27). PI itself is not toxic to neurons (27). […] After 24 hrs, the slices were observed under a Nikon Eclipse E600 microscope and the red (630 nm) fluorescence emitted by PI taken up by damaged cells was photographed by a digital camera (SPOT RTke, SPOT Diagnostics, Sterling Heights, Mich.) with fixed exposure time.
For immunofluorescent staining of neurons, cultures were fixed in 4% paraformaldehyde and stained with anti-PSD95 (1:200, Cell Signaling), anti-MAP2 (1:500, Chemicon) and anti-acetylated α-tubulin (1:250, Zymed). For immunofluorescent staining of microglia, cultures or hippocampal slices were fixed in 4% paraformaldehyde and stained with anti-IBA1 (1:500, Wako Chemicals USA), anti-SRA (E-20, 1:200, Santa Cruz Biotechnology), and anti-CD11b (1:200, AbD Serotec USA, Raleigh, N.C.). The fixed cells or hippocampal slices were incubated with antibodies for overnight at 4° C. followed by secondary Alexa488 conjugated anti-mouse or Alexa568 conjugated anti-rabbit antibody (1:700, Molecular probes). Immunostained images were observed under a Nikon Eclipse E600 microscope and photographed by a digital camera (SPOT RTke, SPOT Diagnostics, Sterling Heights, Mich.).
as §1
Conditioned medium collected from microglia cultures (1×10^5/0.75 cm^2) and hippocampal slices treated with Aβ for 24 hrs were analyzed by the Nitric Oxide Quantization Kit according to the protocol of the manufacturer (Active Motif, Carlsbad, Calif.). Data were normalized to the amount of total protein.

[7] = system: hippocampal neurons; test: Indirect neurotoxicity of conditioned medium from AβO-treated microglia on hippocampal neurons; conditions: microglia co-treated 24 hrs with 1400 W or L-NIL; 25% CM; FIG. 8B
Description: Hippocampal neuronal cultures were prepared from newborn wild type C57BL/6J mice according to the method of Xiang et al (26). Neurons were cultured in NB/B27 at a density of 2.5×10^5 cells/well in 12-well plates or 8×10^5 cells/well in 6-well plates for at least 14 days before they were treated with microglia CM.
Hippocampal neurons were prepared as described above and were plated onto 96-well plate at a density of 6×10^4 cells/well and cultured for 14 days. CM from microglia cultures was added onto neurons with indicated dilutions, and cultures were incubated for 24 hrs.
For immunofluorescent staining of neurons, cultures were fixed in 4% paraformaldehyde and stained with anti-PSD95 (1:200, Cell Signaling), anti-MAP2 (1:500, Chemicon) and anti-acetylated α-tubulin (1:250, Zymed). […] Immunostained images were observed under a Nikon Eclipse E600 microscope and photographed by a digital camera (SPOT RTke, SPOT Diagnostics, Sterling Heights, Mich.).
For quantification of the PSD95-immunoreactive puncta along the dendrites, photomicrographs of PSD95 immunostained cultures were randomly taken from each culture condition. The images were transformed to 8 bit gray scale and analyzed with the Image J program. The number of puncta in each photomicrograph was counted and normalized by dendritic length. The photography and analysis were conducted in an investigator-blinded manner

In the case of “AβO: synthetic Aβ42 peptide oligomers, microglia activator”, the “increase of NO release per cell” value ([1]; AβO 24 hr, normalized to total cellular protein) is reported as ~80%, the “phosphorylated p38MAPK, % of vehicle treatment control” value [2] is reported as 225±38% and the “increase of cells with active NFκB immunoreactivity” value [3] is reported as “six-fold increase”. For the same molecule, the “AβO concentration at which microglia proliferation maximizes” value [4] was “around 50 nM”, the “AβO concentration at which microglia proliferation starts” value [4] was 5 nM and the “microglia cell counts, % of solvent-treated controls” value ([4]; 20 nM AβO, 24 hr) was 184±8.59%. For the same molecule, the “microglia cell counts, % of solvent-treated controls” value ([4]; 20 nM AβO, 48 hr) was 330±21.8% and the “AβO concentrations affecting viability of cultured hippocampal neurons” value [5] was “above 100 nM”.
In the case of `CC(=N)NCc1cccc(CN)c1` [1400 W, N-[(3-aminomethyl)benzyl]acetamidine, reference compound], the “AβO-induced NO production by hippocampal slices” value [6] is reported as “blocked”, the “AβO-induced neuronal damage (PI uptake) in hippocampal slices” value [6] is reported as “blocked” and the “AβO-induced increase of microglia NO production” value [1] is reported as “prevented”. For the same molecule, the “AβO-induced microglial neurotoxicity (neuronal viability)” value [7] was “blocked”.
In the case of `Nc1c(/N=N/c2ccc(-c3ccc(/N=N/c4cc(S(=O)(=O)O)c5ccccc5c4N)cc3)cc2)cc(S(=O)(=O)O)c2ccccc12` [Congo red, reference compound], the “AβO mitogenic effect on microglia (cell numbers)” value ([4]; 20 nM AβO, 24 hrs, A11 50 nM, CR 100 nM, FIG. 1D) is reported as “blocked” and the “microglia activation / mitogenic effect induced by human brain AβO” value ([4]; soluble AD hippocampus extracts) is reported as “blocked”.
For `CC(=N)NCCCC[C@H](N)C(=O)O` [L-NIL, N-iminoethyl-Llysine, reference compound], the “AβO-induced NO production by hippocampal slices” value [6] was “blocked”, the “AβO-induced neuronal damage (PI uptake) in hippocampal slices” value [6] was “blocked” and the “AβO-induced increase of microglia NO production” value [1] was “prevented”. The “AβO-induced microglial neurotoxicity (neuronal viability)” value [7] was “blocked”.
In the case of “polyinosinic acid [poly I, reference compound]”, the “AβO-induced microglia activation / proliferation” value ([4]; 20 nM AβO 24 hrs, 100 ng/ml poly I, 10 μg/ml E-20, 20 μM doxycycline, 1 μM TRAM-34, FIG. 3) is reported as “blocked”.
